Experimental data from patent US8329950B2, “Process for preparation of trans 4-(3,4-Dichlorophenyl)-1,2,3,4-tetrahydro-1Napthalenamine” (Sunovion Pharmaceuticals Inc., priority 2005, dated 2012).
“And” between values parts separate entries of the source, which are not always exact repeats. Identical values can stand only once.

Experiments:
[1] = target: T1, functional uptake of norepinephrine (NE) (Rattus norvegicus, UniProt Q63380); assay: biochemical
T1 construct: synaptosomes isolated at Cerep in a 0.32 M sucrose buffer from a male Wistar rat hypothalamus; tissue Cerep; host or cells: male Wistar rat hypothalamus synaptosomes
Method: Characterization of norepinephrine uptake is performed using synaptosomes isolated at Cerep in a 0.32 M sucrose buffer from a male Wistar rat hypothalamus. The uptake of radiolabeled norepinephrine by synaptosomes (100 μg of proteins/point) is allowed by incubating them in a deep well for 20 minutes at 37° C. in presence of test compounds and [^3H]-norepinephrine (0.1 μCi/point).
Synaptosomes and [^3H]-norepinephrine are prepared in a Krebs buffer pH 7.4 containing 25 mM NaHCO3, 11 mM glucose and 50 μM ascorbic acid. This incubation buffer is oxygenated during 5 minutes before incubation. Basal control is incubated for 20 minutes at 4° C. in order to avoid any uptake. Following this incubation the uptake is stopped by filtration through an “unifilter 96-wells GFB “Packard plate washed with Krebs buffer containing 25 mM NaHCO3 in order to eliminate the free [^3H]-norepinephrine. The radioactivity associated to the synaptosomes retained onto the unifilter corresponding to the uptake is then measured with a microplate scintillation counter Topcount, Packard using a scintillation liquid microscint 0, Packard.

[2] = target: T2, functional uptake of dopamine (DA) (Rattus norvegicus, UniProt P23977); assay: Dopamine functional uptake assay in rat striatum synaptosomes; format: biochemical; details: for inhibition of DA uptake: tested initially at 10 μM
T2 construct: synaptosomes isolated at Cerep in a 0.32 M sucrose buffer from a male Wistar rat striatum; tissue Cerep; host or cells: male Wistar rat striatum synaptosomes
Method: Characterization of dopamine uptake is performed using synaptosomes isolated at Cerep in a 0.32 M sucrose buffer from a male Wistar rat striatum. The uptake of radiolabelled dopamine by synaptosomes (20 μg of proteins/point) is allowed by incubating them in a deep well for 15 minutes at 37° C. in presence of test compounds and [^3H]-dopamine (0.1 μCi/point).
Synaptosomes and [^3H]-dopamine are prepared in a Krebs buffer pH 7.4 containing 25 mM NaHCO3, 11 mM glucose and 50 μM ascorbic acid. This incubation buffer is oxygenated during 5 minutes before incubation. Basal control is incubated for 15 minutes at 4° C. in order to avoid any uptake. Following this incubation the uptake is stopped by filtration through an “unifilter 96-wells GFB “Packard plate washed with Krebs buffer containing 25 mM NaHCO3 in order to eliminate the free [^3H]-dopamine. The radioactivity associated to the synaptosomes retained onto the unifilter corresponding to the uptake is then measured with a microplate scintillation counter Topcount, Packard using a scintillation liquid microscint 0, Packard.

[3] = tested on: women with insomnia secondary to perimenopause or menopause; assay: Clinical study, number of nocturnal awakenings due to hot flashes; format: in vivo, human; details: 3 mg nightly, Intent-to-Treat; for Nocturnal Awakenings due to Hot Flashes, Change from Baseline, Least Squares Means (SE): ANCOVA; for Nocturnal Awakenings due to Hot Flashes, Observed Value, Least Squares Means (SE): ANOVA
Method: (§1) The study was aimed at observing efficacy of eszopiclone 3 mg compared to placebo in the treatment of insomnia secondary to perimenopause or menopause.
(§2) The study was a multicenter, randomized, double-blind, placebo-controlled, parallel-group study. […] The primary method of analysis compared the post-randomization results between the two treatment groups.
(§3) Subjects were women with insomnia secondary to perimenopause or menopause. Subjects were perimenopausal or menopausal and had insomnia symptoms including ≧45 minutes sleep latency (SL) and total sleep time (TST)≦6 hours. Perimenopausal/menopausal symptoms predated the onset of sleep disturbance symptoms. The patient population was predominately Caucasian (77.2%). The mean age was 49, with a range of 40-60.
(§4) A total of 410 subjects were randomized. Among them, 201 received 3 mg of eszopiclone (ESZ) nightly (at bedtime) for four weeks and 209 received matching placebo (PBO).

[4] = tested on: women with insomnia secondary to perimenopause or menopause; assay: Clinical study, Physician Global Assessment; format: in vivo, human; details: Visit 5 (Week 4), 3 mg nightly; for Physician Global Assessment, Observed Value, Least Squares Means (SE): ANOVA
Method: as §1, §2, §3, §4
A Physician Global Assessment was administered at Week 4, the end of the double-blind treatment period.

[5] = target: T3, functional uptake of serotonin (5-HT) (Rattus norvegicus, UniProt P31652); assay: Serotonin functional uptake assay in rat synaptosomes; format: biochemical; details: Table 6; tested initially at 10 μM
T3 construct: synaptosomes isolated in a 0.32 M sucrose buffer from a male Wistar rat cortex; from tissue; host or cells: male Wistar rat cortex (whole brain) synaptosomes
Method: Characterization of serotonin uptake is performed using synaptosomes isolated in a 0.32 M sucrose buffer from a male Wistar rat cortex. The uptake of radiolabelled serotonin by synaptosomes (100 μg of proteins/point) is allowed by incubating them in a deep well for 15 minutes at 37° C. in presence of test compounds and [3H]5-hydroxytryptamin (0.1 μCi/point).
Synaptosomes and [^3H]5-hydroxytryptamine are prepared in a Krebs buffer pH 7.4 containing 25 mM NaHCO3, 11 mM glucose and 50 μM ascorbic acid. This incubation buffer is oxygenated during 5 minutes before incubation. Basal control is incubated for 15 minutes at 4° C. in order to avoid any uptake. Following this incubation the uptake is stopped by filtration through an “unifilter 96-wells GFB “Packard plate washed with Krebs buffer containing 25 mM NaHCO3 in order to eliminate the free [^3H]5-hydroxytryptamine. The radioactivity associated to the synaptosomes retained onto the unifilter corresponding to the uptake is then measured with a microplate scintillation counter Topcount, Packard using a scintillation liquid microscint 0, Packard.

mice = assay: Behavioral Despair Test (Porsolt swim test) in mice; format: in vivo; details: for Immobility Duration, Mean: N = 10
[6] = score 1 = Very much improved to 7 = Very much worse

T1 sequence (Q63380 1-617): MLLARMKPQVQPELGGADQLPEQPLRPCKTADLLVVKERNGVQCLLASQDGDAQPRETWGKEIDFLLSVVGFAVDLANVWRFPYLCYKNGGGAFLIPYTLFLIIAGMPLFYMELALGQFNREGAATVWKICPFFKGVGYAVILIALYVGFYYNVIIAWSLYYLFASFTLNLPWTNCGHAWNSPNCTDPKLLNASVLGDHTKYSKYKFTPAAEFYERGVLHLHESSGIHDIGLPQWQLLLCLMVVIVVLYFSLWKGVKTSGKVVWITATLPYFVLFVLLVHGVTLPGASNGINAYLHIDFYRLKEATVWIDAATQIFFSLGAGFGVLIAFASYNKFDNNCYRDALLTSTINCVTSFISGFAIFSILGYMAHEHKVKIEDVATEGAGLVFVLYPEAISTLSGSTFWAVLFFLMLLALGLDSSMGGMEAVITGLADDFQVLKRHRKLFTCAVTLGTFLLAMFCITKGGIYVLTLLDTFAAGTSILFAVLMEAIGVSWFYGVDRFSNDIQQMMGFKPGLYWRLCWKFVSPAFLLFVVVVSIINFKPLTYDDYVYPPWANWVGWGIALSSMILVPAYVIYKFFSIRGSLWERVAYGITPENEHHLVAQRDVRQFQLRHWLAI
T2 sequence (P23977 whole entry): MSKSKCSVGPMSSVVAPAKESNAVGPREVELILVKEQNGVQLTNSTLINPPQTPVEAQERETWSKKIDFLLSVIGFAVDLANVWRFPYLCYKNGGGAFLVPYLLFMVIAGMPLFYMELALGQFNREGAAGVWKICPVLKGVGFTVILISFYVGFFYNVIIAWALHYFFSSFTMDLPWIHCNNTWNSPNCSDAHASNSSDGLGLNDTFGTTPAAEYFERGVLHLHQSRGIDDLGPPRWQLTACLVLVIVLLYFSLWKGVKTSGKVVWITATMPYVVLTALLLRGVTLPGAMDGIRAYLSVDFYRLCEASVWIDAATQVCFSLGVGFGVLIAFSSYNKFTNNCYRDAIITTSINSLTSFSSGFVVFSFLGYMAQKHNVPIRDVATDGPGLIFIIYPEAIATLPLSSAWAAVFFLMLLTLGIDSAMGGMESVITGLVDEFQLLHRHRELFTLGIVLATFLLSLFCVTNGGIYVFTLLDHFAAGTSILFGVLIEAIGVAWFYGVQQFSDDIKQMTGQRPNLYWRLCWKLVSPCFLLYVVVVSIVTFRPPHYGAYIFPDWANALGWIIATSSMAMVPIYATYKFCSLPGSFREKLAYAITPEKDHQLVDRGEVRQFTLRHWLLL
T3 sequence (P31652 whole entry): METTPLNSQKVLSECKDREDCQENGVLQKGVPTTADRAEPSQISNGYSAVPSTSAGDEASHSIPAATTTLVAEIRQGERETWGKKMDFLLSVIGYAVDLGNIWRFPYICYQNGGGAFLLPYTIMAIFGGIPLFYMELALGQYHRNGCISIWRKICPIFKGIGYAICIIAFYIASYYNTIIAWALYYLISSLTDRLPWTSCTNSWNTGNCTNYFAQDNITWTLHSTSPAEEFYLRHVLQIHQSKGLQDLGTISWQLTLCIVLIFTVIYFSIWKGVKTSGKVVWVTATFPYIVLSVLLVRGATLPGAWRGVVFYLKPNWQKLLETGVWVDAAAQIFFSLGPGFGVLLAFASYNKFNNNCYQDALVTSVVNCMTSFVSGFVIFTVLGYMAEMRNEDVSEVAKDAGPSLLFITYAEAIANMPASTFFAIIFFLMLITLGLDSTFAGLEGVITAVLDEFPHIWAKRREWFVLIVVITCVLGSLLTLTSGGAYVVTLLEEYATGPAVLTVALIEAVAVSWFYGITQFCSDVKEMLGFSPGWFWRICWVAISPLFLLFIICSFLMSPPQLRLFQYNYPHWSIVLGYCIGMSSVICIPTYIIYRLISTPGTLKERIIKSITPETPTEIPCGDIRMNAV

## N[C@@H]1CC[C@@H](c2ccc(Cl)c(Cl)c2)c2ccccc21 (relative stereo) [P + Q, trans 4-(3,4-dichlorophenyl)-1,2,3,4-tetrahydro-1-napthalenamine]
[1]; Table 6, rat synaptosomes
  IC50: 8.8 nM
[2]; Table 6, rat synaptosomes
  IC50: 7.1 nM

## CN1CCN(C(=O)O[C@H]2c3nccnc3C(=O)N2c2ccc(Cl)cn2)CC1 [Eszopiclone, (+) 6-(5-chloropyrid-2-yl)-5-(4-methylpiperazin-1-yl)carbonyloxy-7-oxo-6,7-dihydro-5H-pyrrolo[3-4-b]pyrazine]
[3]; DB Average
  Nocturnal Awakenings due to Hot Flashes, Change from Baseline, 25th Percentile: −1.1
  Nocturnal Awakenings due to Hot Flashes, Change from Baseline, 75th Percentile: 0.0
  Nocturnal Awakenings due to Hot Flashes, Change from Baseline, Maximum: 1.5
  Nocturnal Awakenings due to Hot Flashes, Change from Baseline, Mean (SD): −0.7 (1.0)
  Nocturnal Awakenings due to Hot Flashes, Change from Baseline, Median: −0.5
  Nocturnal Awakenings due to Hot Flashes, Change from Baseline, Minimum: −6.0
  Nocturnal Awakenings due to Hot Flashes, Observed Value, 25th Percentile: 0.0
  Nocturnal Awakenings due to Hot Flashes, Observed Value, 75th Percentile: 0.9
  Nocturnal Awakenings due to Hot Flashes, Observed Value, Maximum: 2.7
  Nocturnal Awakenings due to Hot Flashes, Observed Value, Mean (SD): 0.5 (0.6)
  Nocturnal Awakenings due to Hot Flashes, Observed Value, Median: 0.2
  Nocturnal Awakenings due to Hot Flashes, Observed Value, Minimum: 0.0
  Nocturnal Awakenings due to Hot Flashes, Change from Baseline, Least Squares Means (SE): −0.7 (0.1)
  Nocturnal Awakenings due to Hot Flashes, Observed Value, Least Squares Means (SE): 0.5 (0.1)
[3]; Week 1
  Nocturnal Awakenings due to Hot Flashes, Change from Baseline, 25th Percentile: −1.2
  Nocturnal Awakenings due to Hot Flashes, Change from Baseline, 75th Percentile: 0.0
  Nocturnal Awakenings due to Hot Flashes, Change from Baseline, Maximum: 0.8
  Nocturnal Awakenings due to Hot Flashes, Change from Baseline, Mean (SD): −0.7 (1.0)
  Nocturnal Awakenings due to Hot Flashes, Change from Baseline, Median: −0.5
  Nocturnal Awakenings due to Hot Flashes, Change from Baseline, Minimum: −6.0
  Nocturnal Awakenings due to Hot Flashes, Observed Value, 25th Percentile: 0.0
  Nocturnal Awakenings due to Hot Flashes, Observed Value, 75th Percentile: 1.0
  Nocturnal Awakenings due to Hot Flashes, Observed Value, Maximum: 3.0
  Nocturnal Awakenings due to Hot Flashes, Observed Value, Mean (SD): 0.5 (0.7)
  Nocturnal Awakenings due to Hot Flashes, Observed Value, Median: 0.2
  Nocturnal Awakenings due to Hot Flashes, Observed Value, Minimum: 0.0
  Nocturnal Awakenings due to Hot Flashes, Change from Baseline, Least Squares Means (SE): −0.7 (0.1)
  Nocturnal Awakenings due to Hot Flashes, Observed Value, Least Squares Means (SE): 0.5 (0.1)
[3]; Week 1, listed as ESZ
  Nocturnal Awakenings due to Hot Flashes, Observed Value, Least Squares Means (SE): 0.3
[3]; Week 2
  Nocturnal Awakenings due to Hot Flashes, Change from Baseline, 25th Percentile: −1.0
  Nocturnal Awakenings due to Hot Flashes, Change from Baseline, 75th Percentile: 0.0
  Nocturnal Awakenings due to Hot Flashes, Change from Baseline, Maximum: 2.0
  Nocturnal Awakenings due to Hot Flashes, Change from Baseline, Mean (SD): −0.7 (1.0)
  Nocturnal Awakenings due to Hot Flashes, Change from Baseline, Median: −0.6
  Nocturnal Awakenings due to Hot Flashes, Change from Baseline, Minimum: −6.0
  Nocturnal Awakenings due to Hot Flashes, Observed Value, 25th Percentile: 0.0
  Nocturnal Awakenings due to Hot Flashes, Observed Value, 75th Percentile: 1.0
  Nocturnal Awakenings due to Hot Flashes, Observed Value, Maximum: 3.0
  Nocturnal Awakenings due to Hot Flashes, Observed Value, Mean (SD): 0.5 (0.7)
  Nocturnal Awakenings due to Hot Flashes, Observed Value, Median: 0.0
  Nocturnal Awakenings due to Hot Flashes, Observed Value, Minimum: 0.0
  Nocturnal Awakenings due to Hot Flashes, Change from Baseline, Least Squares Means (SE): −0.6 (0.1)
  Nocturnal Awakenings due to Hot Flashes, Observed Value, Least Squares Means (SE): 0.5 (0.1)
[3]; Week 3
  Nocturnal Awakenings due to Hot Flashes, Change from Baseline, 25th Percentile: −1.0
  Nocturnal Awakenings due to Hot Flashes, Change from Baseline, 75th Percentile: 0.0
  Nocturnal Awakenings due to Hot Flashes, Change from Baseline, Maximum: 1.5
  Nocturnal Awakenings due to Hot Flashes, Change from Baseline, Mean (SD): −0.7 (1.1)
  Nocturnal Awakenings due to Hot Flashes, Change from Baseline, Median: −0.4
  Nocturnal Awakenings due to Hot Flashes, Change from Baseline, Minimum: −6.0
  Nocturnal Awakenings due to Hot Flashes, Observed Value, 25th Percentile: 0.0
  Nocturnal Awakenings due to Hot Flashes, Observed Value, 75th Percentile: 1.0
  Nocturnal Awakenings due to Hot Flashes, Observed Value, Maximum: 3.0
  Nocturnal Awakenings due to Hot Flashes, Observed Value, Mean (SD): 0.5 (0.7)
  Nocturnal Awakenings due to Hot Flashes, Observed Value, Median: 0.0
  Nocturnal Awakenings due to Hot Flashes, Observed Value, Minimum: 0.0
  Nocturnal Awakenings due to Hot Flashes, Change from Baseline, Least Squares Means (SE): −0.6 (0.1)
  Nocturnal Awakenings due to Hot Flashes, Observed Value, Least Squares Means (SE): 0.5 (0.1)
[3]; Week 4
  Nocturnal Awakenings due to Hot Flashes, Change from Baseline, 25th Percentile: −1.3
  Nocturnal Awakenings due to Hot Flashes, Change from Baseline, 75th Percentile: 0.0
  Nocturnal Awakenings due to Hot Flashes, Change from Baseline, Maximum: 2.1
  Nocturnal Awakenings due to Hot Flashes, Change from Baseline, Mean (SD): −0.8 (1.2)
  Nocturnal Awakenings due to Hot Flashes, Change from Baseline, Median: −0.7
  Nocturnal Awakenings due to Hot Flashes, Change from Baseline, Minimum: −6.0
  Nocturnal Awakenings due to Hot Flashes, Observed Value, 25th Percentile: 0.0
  Nocturnal Awakenings due to Hot Flashes, Observed Value, 75th Percentile: 1.0
  Nocturnal Awakenings due to Hot Flashes, Observed Value, Maximum: 3.6
  Nocturnal Awakenings due to Hot Flashes, Observed Value, Mean (SD): 0.4 (0.7)
  Nocturnal Awakenings due to Hot Flashes, Observed Value, Median: 0.0
  Nocturnal Awakenings due to Hot Flashes, Observed Value, Minimum: 0.0
  Nocturnal Awakenings due to Hot Flashes, Change from Baseline, Least Squares Means (SE): −0.7 (0.1)
  Nocturnal Awakenings due to Hot Flashes, Observed Value, Least Squares Means (SE): 0.4 (0.1)
[4]
  Physician Global Assessment, Change from Baseline, 25th Percentile: −2.0
  Physician Global Assessment, Change from Baseline, 75th Percentile: 0.0
  Physician Global Assessment, Change from Baseline, Maximum: 6.0
  Physician Global Assessment, Change from Baseline, Mean (SD): −1.0 (1.4)
  Physician Global Assessment, Change from Baseline, Median: −1.0
  Physician Global Assessment, Change from Baseline, Minimum: −4.0
  Physician Global Assessment, Observed Value, Least Squares Means (SE): 2.7 (0.1)
[4]; ANCOVA
  Physician Global Assessment, Change from Baseline, Least Squares Means (SE): −0.9 (0.1)
[4]; listed as ESZ
  Physician Global Assessment, Observed Value, Least Squares Means (SE): 2.7
[4]; [6]
  Physician Global Assessment, Observed Value, 25th Percentile: 2.0
  Physician Global Assessment, Observed Value, 75th Percentile: 4.0
  Physician Global Assessment, Observed Value, Maximum: 6.0
  Physician Global Assessment, Observed Value, Mean (SD): 2.6 (1.2)
  Physician Global Assessment, Observed Value, Median: 2.0
  Physician Global Assessment, Observed Value, Minimum: 1.0

## Fc1ccc(C(OCCN2CCN(CCCc3ccccc3)CC2)c2ccc(F)cc2)cc1 [GBR 12909]
[1]; Table 6, tested initially at 10 μM
  inhibition of NE uptake: — (— <50% inhibition)
[5]
  inhibition of 5-HT uptake: — (— <50% inhibition)

## N[C@@H]1CC[C@@H](c2ccc(Cl)c(Cl)c2)c2ccccc21 [P, (1R,4S)-trans 4-(3,4-dichlorophenyl)-1,2,3,4-tetrahydro-1-napthalenamine]
mice; 0.03 mg/kg intraperitoneal
  Immobility Duration, individual mice: 129 s and 99 s and 107 s and 159 s and 102 s and 115 s and 122 s and 128 s and 120 s and 96 s
  Immobility Duration, Mean: 118 s
mice; 0.1 mg/kg intraperitoneal
  Immobility Duration, individual mice: 100 s and 103 s and 76 s and 109 s and 56 s and 98 s and 62 s and 119 s and 96 s and 85 s
  Immobility Duration, Mean: 90 s
mice; 0.3 mg/kg intraperitoneal
  Immobility Duration, individual mice: 93 s and 23 s and 102 s and 110 s and 106 s and 98 s and 120 s and 114 s and 109 s and 115 s
  Immobility Duration, Mean: 99 s
mice; 1 mg/kg intraperitoneal
  Immobility Duration, individual mice: 34 sec and 51 sec (2×) and 35 sec and 19 sec and 81 sec and 50 sec and 29 sec and 66 sec and 87 sec
  Immobility Duration, Mean: 50 s
mice; 3 mg/kg intraperitoneal
  Immobility Duration, individual mice: 3 sec and 17 sec and 5 sec and 0 sec (3×) and 40 sec and 26 sec and 12 sec and 49 sec
  Immobility Duration, Mean: 15 s

## CN(C)CCCN1c2ccccc2CCc2ccccc21 [imipramine]
mice; 10 mg/kg
  Immobility Duration, individual mice: 89 s and 85 s and 73 s and 37 s and 74 s and 95 s and 5 s and 33 s
  Immobility Duration, Mean: 58 s
[1]; read-out: inhibition of NE uptake
  inhibition at 10 µM: < 50%
[2]; Table 6
  inhibition of DA uptake: — (— <50% inhibition)
[2]; read-out: inhibition of DA uptake
  inhibition at 10 µM: < 50%

## CNCCCC1c2ccccc2C=Cc2ccccc21 [protriptyline]
[2]; Table 6
  inhibition of DA uptake: — (— <50% inhibition)
